The supplement of paper PMC10627819

Assays:
[1] = tested on: B. subtilis 168; assay: fitness (endpoint OD595 vs no drug) (fraction); higher = more growth
Procedure, shortened: (§1)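 In 384-well plates at 37 °C, cultures began at OD595 0.01 in 30 µl, with 55 µl used for S. pneumoniae. OD595 readings every 30 min for 14 h were corrected by the first reading. Fitness divides the stationary-phase transition optical density by the robust mean of no-drug control wells. The result is capped at 1.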

[2] = tested on: S. pneumoniae D39V; assay: as above
Procedure, shortened: as §1

[3] = tested on: B. subtilis 168; assay: Bliss interaction score (quartile over a dose matrix) (fitness difference); higher = more antagonism (negative = synergy)
Procedure, shortened: (§2)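 Growth was read as OD595 when cultures entered stationary phase, and each value was divided by the plate's robust no-drug mean and capped at 1. This normalised ratio is the fitness value, and fitness for each single drug came from the combination data. The Bliss score subtracts the expected fitness, taken as the product, from the observed fitness and is given as quartiles across technical, biological and donor/recipient replicates.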

[4] = tested on: S. aureus Newman; assay: as above
Procedure, shortened: as §2

[5] = tested on: S. aureus DSM 20231; assay: as above
Procedure, shortened: as §2

[6] = tested on: S. pneumoniae D39V; assay: as above
Procedure, shortened: as §2
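For Bliss interaction score (quartile over a dose matrix) in this document: first quartile when negative (synergy) and third quartile when positive (antagonism).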
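For fitness (endpoint OD595 vs no drug) in this document: OD595 on entry to stationary phase over no-drug wells; at most 1.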

CN(C)C(=O)C(CCN1CCC(O)(c2ccc(Cl)cc2)CC1)(c1ccccc1)c1ccccc1 [Loperamide] + CN1C2=CC=CC=C2N=C3C1=CC=CC3=O [Pyocyanin]
Details	fitness
[1], first compound 25 µg/mL, partner 1.25 µg/mL	0.819
[1], first compound 25 µg/mL, partner 2.5 µg/mL	0.78
[1], first compound 25 µg/mL, partner 5 µg/mL	0.632
[1], first compound 50 µg/mL, partner 5 µg/mL	0.215
[1], first compound 100 µg/mL, partner 1.25 µg/mL	0.062
[1], first compound 100 µg/mL, partner 2.5 µg/mL	0.0311
[1], first compound 100 µg/mL, partner 5 µg/mL	0.0308
[2], first compound 17.14 µg/mL, partner 0.325 µg/mL	≥ 1
[2], first compound 17.14 µg/mL, partner 0.65 µg/mL	0.984
[2], first compound 17.14 µg/mL, partner 1.3 µg/mL	0.797
[2], first compound 34.28 µg/mL, partner 0.325 µg/mL	0.993
[2], first compound 34.28 µg/mL, partner 0.65 µg/mL	0.945
[2], first compound 34.28 µg/mL, partner 1.3 µg/mL	0.729

fitness, [2], one replicate
Details	first compound 20 µg/mL	first compound 40 µg/mL	first compound 68.57 µg/mL	first compound 80 µg/mL
partner 0.325 µg/mL	≥ 1	≥ 1	≥ 1	≥ 1
partner 0.65 µg/mL	≥ 1	≥ 1	0.964	0.995
partner 1.3 µg/mL	–	–	0.748	–

Details	Bliss interaction score
[3]	0.103
[4]	-0.0463
[5]	-0.0519
[6]	0.0757

CN(C)C(=O)C(CCN1CCC(O)(c2ccc(Cl)cc2)CC1)(c1ccccc1)c1ccccc1 [Loperamide] + CN(C)c1cc(NC(=O)CNC(C)(C)C)c(O)c2c1C[C@H]1C[C@H]3[C@H](N(C)C)C(O)=C(C(N)=O)C(=O)[C@@]3(O)C(O)=C1C2=O [Tigecycline]
fitness
Details	first compound 17.14 µg/mL	first compound 20 µg/mL	first compound 25 µg/mL	first compound 34.28 µg/mL	first compound 40 µg/mL	first compound 50 µg/mL	first compound 80 µg/mL	first compound 100 µg/mL
[1], partner 0.039 µg/mL	–	–	0.894	–	–	0.132	–	0.0203
[1], partner 0.078 µg/mL	–	–	0.832	–	–	0.0334	–	0.0305
[1], partner 0.156 µg/mL	–	–	0.825	–	–	0.0355	–	0.0215
[2], partner 0.65 µg/mL	0.945	0.995	–	0.993	0.991	–	0.0427	–
[2], partner 1.3 µg/mL	≥ 1	0.931	–	0.991	0.977	–	0.0494	–
[2], partner 2.6 µg/mL	≥ 1	0.944	–	0.98	0.995	–	0.0611	–

fitness, one replicate
Details	partner 0.125 µg/mL	partner 0.25 µg/mL	partner 0.5 µg/mL	partner 0.65 µg/mL	partner 1.3 µg/mL	partner 2.6 µg/mL
[1], first compound 25 µg/mL	0.978	0.884	0.858	–	–	–
[1], first compound 50 µg/mL	0.327	0.22	0.272	–	–	–
[1], first compound 100 µg/mL	0.67	0.512	0.67	–	–	–
[2], first compound 68.57 µg/mL	–	–	–	≥ 1	≥ 1	≥ 1

Details	Bliss interaction score
[3]	0.115
[4]	0.0321
[5]	-0.115
[6]	0.084
